Laboratory results published in US20190345138A1, “HETEROCYCLIC AMIDES AS KINASE INHIBITORS” (GlaxoSmithKline Intellectual Property Development Limited, priority 2016, published 2019).
Values joined by “and” are separate entries in the source; they are usually repeats but may differ in a detail not shown here. Identical values can stand only once. Like-named read-outs stand apart in the source and are kept apart here.

Columns and labels:
[1] = tested on: mouse L929 fibrosarcoma cells; assay: necroptosis assay in L929 cells; type: cell-based; conditions: viability by cellular ATP (Cell Titer-Glo), read-out: pIC50, inhibited necrosis in L929 cells (converted)
Experimental: The efficacy of RIP1 inhibitors can be tested […] in vitro using a human monocytic leukemia U937 or mouse L929 fibrosarcoma cells in a necroptosis assay. As determined using the method described in S. He et al., Cell, 137(6):1100-1111 (2009) and International Patent Appln. No. PCT/IB2014/059004, now, International Patent Appln. Pub.
Viability was measured by quantitating cellular levels of ATP using the Cell Titer-Glo kit. All data are means±standard deviation of the mean.

[2] = tested on: human monocytic leukemia U937 cells; assay: necroptosis assay in U937 cells; type: cell-based; conditions: viability by cellular ATP (Cell Titer-Glo); for IC50: Homo sapiens, U-937, U937 cells, read-out: pIC50, inhibited necrosis in U937 cells (converted)
In short: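 Necroptosis was induced in human U937 or mouse L929 cells, and viability was quantified as cellular ATP with Cell Titer-Glo. Data are means±standard deviation.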

RIP1 kinase = molecular target: T1, RIP1 kinase (Homo sapiens, UniProt Q13546); assay: fluorescent polarization based binding assay; conditions: mean of a minimum of 2 experiments
T1 sequence (Q13546 1-375 limits assumed): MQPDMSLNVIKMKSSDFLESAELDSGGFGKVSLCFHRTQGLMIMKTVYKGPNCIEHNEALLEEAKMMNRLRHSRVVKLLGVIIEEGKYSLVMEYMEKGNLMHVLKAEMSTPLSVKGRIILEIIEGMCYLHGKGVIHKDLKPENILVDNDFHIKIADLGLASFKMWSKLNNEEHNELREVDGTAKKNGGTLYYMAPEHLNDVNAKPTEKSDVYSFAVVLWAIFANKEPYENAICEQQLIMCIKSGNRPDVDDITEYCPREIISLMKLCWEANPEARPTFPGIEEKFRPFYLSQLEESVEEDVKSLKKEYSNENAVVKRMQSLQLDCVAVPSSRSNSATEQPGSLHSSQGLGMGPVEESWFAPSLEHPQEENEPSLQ
Description: A fluorescent polarization based binding assay was used to assess the activity of the compounds of this invention, the details of which are disclosed in International Patent Appln. No. PCT/IB2014/059004, now, International Patent Appln. Pub.

[3] = tested on: TNF-driven systemic inflammatory response syndrome model; assay: TNF-driven systemic inflammatory response syndrome model (TNF/zVAD or TNF alone), temperature loss; type: in vivo; conditions: Mus musculus, po, 10 mg/kg PO, pre-dosed 15 minutes before i.v. mouse TNF alone or with zVAD
Description: The efficacy of RIP1 inhibitors can be tested in mice in vivo using a TNF-driven systemic inflammatory response syndrome model (L. Duprez et al. Immunity 35(6):908-918, (2011)) using TNF plus the caspase inhibitor zVAD or TNF alone. The TNF/zVAD model is terminated at ˜3 hrs and the TNF alone model is terminated at ˜8 hrs (under IACUC guidelines for temperature loss). TNF (or TNF/zVAD) induced manifestations include temperature loss, the production of numerous cytokines (including IL-6, IL-1b, MIP1β and MIP2) in the periphery, liver and intestinal inflammation and an increase of markers of cellular (LDH and CK) and liver damage (AST and ALT) in the serum. Inhibition of these TNF alone or TNF/zVAD induced manifestations can be shown by PO pre-dosing with selected compounds. For example, mice (8 mice per group) were pre-dosed PO with vehicle or compound 15 minutes before i.v. administration of mouse TNF (30 μg/mouse) alone or in combination with zVAD (0.4 mg/mouse) simultaneously. Temperature loss in the mice was measured by rectal probe. The study was terminated when the control group lost 7 degrees, per our IACUC protocol. All data are shown as means±standard error of the mean.

SMILES | IC50 ([1]; L929 cells) [µM] | IC50 [2] [µM] | IC50 (RIP1 kinase) | inhibition in vivo at 10 mg/kg [3] [%] | IC50 ([1]; L929, L929 cells) [µM] | pIC50, inhibited necrosis in U937 cells ([2]; U937 cells)
O=C(C1CCN(c2nccc(SCc3ccccc3)n2)CC1)N1N=CC[C@H]1c1ccccc1 [Example 1, (S)-(1-(4-(benzylthio)pyrimidin-2-yl)piperidin-4-yl)(5-phenyl-4,5-dihydro-1H-pyrazol-1-yl)methanone] | 0.001 to 0.1 | 0.001 to 0.1 |  |  |  | 
N#Cc1cc(N2CCC(C(=O)N3N=CC[C@H]3c3ccccc3)CC2)ncn1 [Example 14, (S)-6-(4-(5-phenyl-4,5-dihydro-1H-pyrazole-1-carbonyl)piperidin-1-yl)pyrimidine-4-carbonitrile] | 0.001 to 0.1 | 0.001 to 0.1 | 0.001 to 0.0316 µM and 0.001 to 0.01 µM |  |  | 
Nc1cc(N2CCC(C(=O)N3N=CC[C@H]3c3ccccc3)CC2)ncn1 [Example 20, (S)-(1-(6-aminopyrimidin-4-yl)piperidin-4-yl)(5-phenyl-4,5-dihydro-1H-pyrazol-1-yl)methanone] | ~1 |  | 0.001 to 0.0316 µM and ~0.0158 µM | 92 |  | 
Nc1nc(N2CCC(C(=O)N3N=CC[C@H]3c3ccccc3)CC2)ncc1F [Example 27, (S)-(1-(4-amino-5-fluoropyrimidin-2-yl)piperidin-4-yl)(5-phenyl-4,5-dihydro-1H-pyrazol-1-yl)methanone] | 0.001 to 0.1 | 0.001 to 0.1 | 0.001 to 0.0316 µM and 0.001 to 0.01 µM |  |  | 
NC(=O)c1ccnc(N2CCC(C(=O)N3N=CC[C@H]3c3ccccc3)CC2)n1 [Example 28, (S)-2-(4-(5-phenyl-4,5-dihydro-1H-pyrazole-1-carbonyl)piperidin-1-yl)pyrimidine-4-carboxamide] | 0.001 to 0.1 | 0.001 to 0.1 | 0.001 to 0.0316 µM and 0.001 to 0.01 µM |  |  | 
CC(=O)Nc1ccnc(N2CCC(C(=O)N3N=CC[C@H]3c3ccccc3)CC2)n1 [Example 36, (S)-N-(2-(4-(5-phenyl-4,5-dihydro-1H-pyrazole-1-carbonyl)piperidin-1-yl)pyrimidin-4-yl)acetamide] | 0.001 to 0.1 | 0.001 to 0.1 | 0.001 to 0.0316 µM and 0.001 to 0.01 µM |  |  | 
O=C(C1CCN(c2ncc3cn[nH]c3n2)CC1)N1N=CC[C@H]1c1ccccc1 [Example 52, (S)-(1-(1H-pyrazolo[3,4-d]pyrimidin-6-yl)piperidin-4-yl)(5-phenyl-4,5-dihydro-1H-pyrazol-1-yl)methanone] | 0.001 to 0.1 | 0.001 to 0.1 | 0.001 to 0.0316 µM and 0.001 to 0.01 µM |  |  | 
Cc1nnc(N2CCC(C(=O)N3N=CC[C@H]3c3cc(F)cc(F)c3)CC2)o1 [Example 77, (S)-(5-(3,5-difluorophenyl)-4,5-dihydro-1H-pyrazol-1-yl)(1-(5-methyl-1,3,4-oxadiazol-2-yl)piperidin-4-yl)methanone] |  |  |  |  | ~3.16 | ~7.2
Nc1nc(N2CCC(C(=O)N3N=CC[C@H]3c3cc(F)cc(F)c3)CC2)ncc1F [Example 81, (S)-(1-(4-amino-5-fluoropyrimidin-2-yl)piperidin-4-yl)(5-(3,5-difluorophenyl)-4,5-dihydro-1H-pyrazol-1-yl)methanone] | 0.001 to 0.1 | 0.001 to 0.1 | 0.001 to 0.0316 µM and 0.001 to 0.01 µM |  |  | 
NC(=O)c1ccnc(N2CCC(C(=O)N3N=CC[C@H]3c3cc(F)cc(F)c3)CC2)n1 [Example 83, (S)-2-(4-(5-(3,5-difluorophenyl)-4,5-dihydro-1H-pyrazole-1-carbonyl)piperidin-1-yl)pyrimidine-4-carboxamide] | 0.001 to 0.1 | 0.001 to 0.1 | 0.001 to 0.0316 µM and 0.001 to 0.01 µM |  |  | 
O=C(C1CCN(c2ncc3cn[nH]c3n2)CC1)N1N=CC[C@H]1c1cc(F)cc(F)c1 [Example 86, (S)-(1-(1H-pyrazolo[3,4-d]pyrimidin-6-yl)piperidin-4-yl)(5-(3,5-difluorophenyl)-4,5-dihydro-1H-pyrazol-1-yl)methanone] | 0.001 to 0.1 | 0.001 to 0.1 |  |  |  | 
N#Cc1nccc(N2CCC(C(=O)N3N=CC[C@H]3c3cc(F)cc(F)c3)CC2)n1 [Example 89, (S)-4-(4-(5-(3,5-difluorophenyl)-4,5-dihydro-1H-pyrazole-1-carbonyl)piperidin-1-yl)pyrimidine-2-carbonitrile] |  | 0.001 to 0.1 |  |  | 0.001 to 0.1 | 
NC(=O)c1ccnc(N2CCC(C(=O)N3N=CC[C@H]3c3cc(F)ccc3F)CC2)n1 [Example 102, (S)-2-(4-(5-(2,5-difluorophenyl)-4,5-dihydro-1H-pyrazole-1-carbonyl)piperidin-1-yl)pyrimidine-4-carboxamide] | 0.001 to 0.1 | 0.001 to 0.1 | 0.001 to 0.0316 µM and 0.001 to 0.01 µM |  |  | 
N#Cc1cc(N2CCC(C(=O)N3N=CC[C@H]3c3cc(F)ccc3F)CC2)ncn1 [Example 104, (S)-6-(4-(5-(2,5-difluorophenyl)-4,5-dihydro-1H-pyrazole-1-carbonyl)piperidin-1-yl)pyrimidine-4-carbonitrile] | 0.001 to 0.1 | 0.001 to 0.1 | 0.001 to 0.0316 µM and 0.001 to 0.01 µM |  |  | 
CC(=O)Nc1ccnc(N2CCC(C(=O)N3N=CC[C@H]3c3cc(F)ccc3F)CC2)n1 [Example 118, (S)—N-(2-(4-(5-(2,5-difluorophenyl)-4,5-dihydro-1H-pyrazole-1-carbonyl)piperidin-1-yl)pyrimidin-4-yl)acetamide] | 0.001 to 0.1 | 0.001 to 0.1 | 0.001 to 0.0316 µM |  |  | 
C#Cc1cc(N2CCC(C(=O)N3N=CC[C@H]3c3ccccc3)CC2)ncn1 [Example 156, (S)-(1-(6-ethynylpyrimidin-4-yl)piperidin-4-yl)(5-phenyl-4,5-dihydro-1H-pyrazol-1-yl)methanone] | 0.001 to 0.1 | 0.001 to 0.1 | 0.001 to 0.0316 µM and 0.001 to 0.01 µM |  |  | 
C#Cc1cc(N2CCC(C(=O)N3N=CC[C@H]3c3cccc(C#N)c3)CC2)ncn1 [Example 158, (S)-3-(1-(1-(6-ethynylpyrimidin-4-yl)piperidine-4-carbonyl)-4,5-dihydro-1H-pyrazol-5-yl)benzonitrile] |  | 0.001 to 0.1 | 0.001 to 0.0316 µM |  |  | 
O=C(O)c1ncnc(N2CCC(C(=O)N3N=CC[C@H]3c3ccccc3)CC2)c1F [Example 159, (S)-5-fluoro-6-(4-(5-phenyl-4,5-dihydro-1H-pyrazole-1-carbonyl)piperidin-1-yl)pyrimidine-4-carboxylic acid] | ~0.251 |  | ~0.0501 µM |  |  | 
NC(=O)c1nc(N2CCC(C(=O)N3N=CC[C@H]3c3cncc(F)c3)CC2)ncc1F [Example 161, (S)-5-fluoro-2-(4-(5-(5-fluoropyridin-3-yl)-4,5-dihydro-1H-pyrazole-1-carbonyl)piperidin-1-yl)pyrimidine-4-carboxamide] |  | 0.001 to 0.1 | 0.001 to 0.0316 µM |  |  | 
NC(=O)c1nc(N2CCC(C(=O)N3N=CC[C@H]3c3ccccc3)CC2)ncc1F [Example 162, (S)-5-fluoro-2-(4-(5-phenyl-4,5-dihydro-1H-pyrazole-1-carbonyl)piperidin-1-yl)pyrimidine-4-carboxamide] | 0.001 to 0.1 | 0.001 to 0.1 | 0.001 to 0.0316 µM and 0.001 to 0.01 µM |  |  | 
O=C(O)c1ncnc(N2CCC(C(=O)N3N=CC[C@H]3c3cc(F)cc(F)c3)CC2)c1F [Example 164, (S)-6-(4-(5-(3,5-difluorophenyl)-4,5-dihydro-1H-pyrazole-1-carbonyl)piperidin-1-yl)-5-fluoropyrimidine-4-carboxylic acid] |  | 0.001 to 0.1 | 0.001 to 0.0316 µM |  |  | 
NC(=O)c1ncnc(N2CCC(C(=O)N3N=CC[C@H]3c3cc(F)cc(F)c3)CC2)c1F [Example 165, (S)-6-(4-(5-(3,5-difluorophenyl)-4,5-dihydro-1H-pyrazole-1-carbonyl)piperidin-1-yl)-5-fluoropyrimidine-4-carboxamide] |  | 0.001 to 0.1 | 0.001 to 0.0316 µM and 0.001 to 0.01 µM |  |  | 
NC(=O)Cc1nc(N2CCC(C(=O)N3N=CC[C@H]3c3ccccc3)CC2)ncc1F [Example 169, (S)-2-(5-fluoro-2-(4-(5-phenyl-4,5-dihydro-1H-pyrazole-1-carbonyl)piperidin-1-yl)pyrimidin-4-yl)acetamide] |  | 0.001 to 0.1 | 0.001 to 0.0316 µM and 0.001 to 0.01 µM |  |  | 
